Experimental data published in patent US20090203716A1, “Pyrimidine low molecular weight ligands for modulating hormone receptors” (The Government of the United States of America as …, priority 2006, published 2009).

Legend:
[1] = biological target: T1, TSHR mutant Y7.42A (Homo sapiens, UniProt P16473, Y667A); assay: cAMP production in HEK-EM 293 cells transiently expressing TSHR mutant Y7.42A; format: cell-based; details: 30 μM compound
T1 construct: expressed in transfected cells; host or cells: HEK-EM 293 (transient, FuGENE 6)
T1 sequence (P16473 21-764 Y667A): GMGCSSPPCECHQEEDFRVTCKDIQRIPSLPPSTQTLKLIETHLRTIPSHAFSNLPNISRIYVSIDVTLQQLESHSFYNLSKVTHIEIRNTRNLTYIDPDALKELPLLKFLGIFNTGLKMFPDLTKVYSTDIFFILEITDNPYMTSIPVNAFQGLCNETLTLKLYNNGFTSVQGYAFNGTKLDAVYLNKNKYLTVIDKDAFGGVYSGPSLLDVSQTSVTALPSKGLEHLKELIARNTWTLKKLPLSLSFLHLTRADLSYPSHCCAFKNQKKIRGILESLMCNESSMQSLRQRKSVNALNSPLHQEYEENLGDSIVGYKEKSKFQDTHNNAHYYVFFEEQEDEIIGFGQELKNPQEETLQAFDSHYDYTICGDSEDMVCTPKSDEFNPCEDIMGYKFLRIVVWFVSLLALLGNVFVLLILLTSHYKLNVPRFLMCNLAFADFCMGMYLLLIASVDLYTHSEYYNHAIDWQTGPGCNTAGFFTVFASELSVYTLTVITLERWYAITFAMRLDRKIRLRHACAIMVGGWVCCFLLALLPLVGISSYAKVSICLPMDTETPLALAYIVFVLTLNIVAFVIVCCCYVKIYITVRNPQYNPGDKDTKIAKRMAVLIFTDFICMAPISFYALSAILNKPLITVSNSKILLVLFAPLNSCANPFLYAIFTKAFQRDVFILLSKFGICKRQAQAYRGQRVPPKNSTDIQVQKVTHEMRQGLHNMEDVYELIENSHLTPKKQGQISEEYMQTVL
Protocol: HEK-EM 293 cells were grown in Dulbecco's modified Eagle's Medium (DMEM) supplemented with 10% fetal bovine serum, 100 units/ml penicillin and 10 μg/ml streptomycin (Life Technologies Inc.) at 37° C. in a humidified 5% CO2 incubator. Cells were transiently transfected with wild type TSHR and mutant receptors in 24-well plates (7.5×10^4 cells per well) with 0.4 μg DNA/well using FuGENE™ 6 reagent (Roche) according to the manufacturer's protocol.
The M9 mutant is described in Jaschke et al., J Biol Chem 281:9841-9844. The Y7.42A mutant was introduced into hTSHR-pcDNA3.1 via the QuickChange XL Site-Directed Mutagenesis kit (Stratagene). The construct was verified by sequencing (MWG Biotech).
Transiently transfected cells were cultured for 48 hours before the cAMP assay. HEK-EM 293 cells stably expressing TSHR, LHCGR or FSHR were seeded into 24-well plates with a density of 2.2×10^5 cells/well 24 hours before the cAMP assay. […] The intracellular cAMP content was determined with the cAMP Biotrak Enzymeimmunoassay (EIA) System (GE Healthcare). Data were analyzed using GraphPad Prism 4 for Windows. Receptor expression was measured as described in Jaschke et al., J Biol Chem 281:9841-9844.

[2] = system: thyroperoxidase (TPO) mRNA expression in human thyrocytes; assay: TPO mRNA expression in primary cultures of human thyrocytes; format: cell-based; design: inhibition of TSH-stimulated increase of TPO mRNA expression: dose or concentration left out as unconfirmed
Protocol: Thyroid tissue samples were obtained through the NIH Clinical Center during surgery for unrelated reasons. Patients provided informed consent on an IRB approved protocol and materials were received anonymously via approval of research activity through the Office of Human Subjects Research. The specimens were maintained in HBSS on ice and isolation of cells was initiated within 4 hours after surgery. All preparations were performed under sterile conditions. Tissue samples were minced into small pieces by fine surgical forceps and scissors in a 10 cm dish with a small volume of HBSS. Tissue pieces were transferred to a 15 ml tube (Falcon) and washed at least 3 times with HBSS. Afterward, tissue pieces were incubated with HBSS containing 3 mg/ml Collagenase Type IV (Gibco). Enzymatic digestion proceeded for 30 minutes or longer with constant shaking in a water bath at 37° C. until a suspension of isolated cells was obtained. After centrifugation for 5 minutes at 1000 rpm, the supernatant was removed and cells were resuspended in 10 ml DMEM with 10% FBS. Cells were plated in 10 cm tissue culture dishes and incubated at 37° C. in a humidified 5% CO2 incubator. After 24 hours, the supernatant containing non-adherent cells was removed. The primary cultures of thyroid cells formed a confluent monolayer within 5-7 days. […]

[3] = biological target: T2, TSHR (Homo sapiens, UniProt P16473); assay: competition with 125I-labeled TSH for binding to TSHR
T2 sequence (P16473 21-764): as the sequence (P16473 21-764 Y667A) above, with A647Y counted along it

[4] = biological target: T3, human LHCG receptor (Homo sapiens, UniProt P22888); assay: intracellular cAMP accumulation, agonism at LHCGR stably expressed in HEK EM 293 cells; format: cell-based; details: full activation of LHCGR by LH set at 100%
T3 construct: expressed in transfected cells
T3 sequence (P22888 27-699): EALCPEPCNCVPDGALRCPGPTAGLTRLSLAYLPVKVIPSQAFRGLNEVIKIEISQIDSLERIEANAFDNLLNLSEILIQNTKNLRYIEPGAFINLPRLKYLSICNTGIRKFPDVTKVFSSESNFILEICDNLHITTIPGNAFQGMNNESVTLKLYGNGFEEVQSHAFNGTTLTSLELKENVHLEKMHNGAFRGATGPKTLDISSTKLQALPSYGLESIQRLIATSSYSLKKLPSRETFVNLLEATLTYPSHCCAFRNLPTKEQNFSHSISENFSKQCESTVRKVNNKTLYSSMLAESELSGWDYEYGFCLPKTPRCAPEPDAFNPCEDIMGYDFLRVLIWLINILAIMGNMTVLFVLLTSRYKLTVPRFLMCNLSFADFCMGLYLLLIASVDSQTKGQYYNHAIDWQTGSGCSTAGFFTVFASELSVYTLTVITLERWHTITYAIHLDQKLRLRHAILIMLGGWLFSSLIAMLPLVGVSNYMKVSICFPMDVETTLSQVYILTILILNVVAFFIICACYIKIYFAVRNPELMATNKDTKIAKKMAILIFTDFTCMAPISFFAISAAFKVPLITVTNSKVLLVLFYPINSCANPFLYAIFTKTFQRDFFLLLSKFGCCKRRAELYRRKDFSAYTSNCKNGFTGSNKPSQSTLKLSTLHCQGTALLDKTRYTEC
Protocol: With reference to Table 1, exemplary disclosed compounds were evaluated against human TSH receptor and human LHCG receptor that were stably expressed in HEK 293 EM cells as previously described by Libert et al. (Biochem. Biophys. Res. Commun. 1989, 165, 1250-1255); and by Schulz et al. (Mol. Endocrinol. 1999, 13, 181-190). Cell surface expression of TSH receptor and LHCG receptor were determined via FACS analysis (Kleinau, G.; Jäschke, H.; Neumann, S.; Lättig, S.; Paschke, R.; Krause, G. J. Biol. Chem. 2004, 279, 51590-51600).
Following aspiration of the medium after incubation with compounds, cells were lysed using lysis buffer 1 of the cAMP Biotrak Enzymeimmunoassay (EIA) System (Amersham Biosciences). The cAMP content of the cell lysate was determined using the manufacturer's protocol. […] The potency (EC50) was obtained from dose response curves (0-100 μM compound) by data analysis with GraphPad Prism 4 for Windows. […] The data are presented as mean±SEM of two independent experiments, each performed in duplicate.
(§1) Transiently transfected cells were cultured for 48 hours before the cAMP assay. HEK-EM 293 cells stably expressing TSHR, LHCGR or FSHR were seeded into 24-well plates with a density of 2.2×10^5 cells/well 24 hours before the cAMP assay. After removal of growth medium, cells were incubated for 1 hour in HBSS (Cellgro) with 10 mM HEPES (Cellgro) containing 1 mM 3-isobutyl-1-methylxanthine (IBMX) (Sigma) and the ligand of interest in a humidified 5% CO2 incubator at 37° C. The intracellular cAMP content was determined with the cAMP Biotrak Enzymeimmunoassay (EIA) System (GE Healthcare). Data were analyzed using GraphPad Prism 4 for Windows. Receptor expression was measured as described in Jaschke et al., J Biol Chem 281:9841-9844.

[5] = biological target: T2, TSHR; assay: inhibition of TSH-mediated cAMP response in HEK-EM 293 cells stably expressing TSHR; format: cell-based; design: expressed in transfected cells
Protocol: as §1
The TSH-mediated cAMP response of TSHR was inhibited by a maximum of 70.8±5.5% at 30 μM compound 52. […] Compound 52 has no activity at FSHR.
To exclude the possibility that compound 52 might be acting independently of TSHR by building aggregates with TSH, thereby inhibiting the TSH-induced response, tests were conducted for a possible aggregation between these two ligands. Compound 52 and TSH were preincubated for up to 15 minutes before addition to HEK-EM 293 cells stably expressing TSHR. […] There was no difference in the antagonistic effect whether TSH and compound 52 were preincubated together or not (data not shown) thereby excluding the possibility that its effect was caused by aggregation with TSH.

Compound: COC/C=C/c1ccc(-c2nc(SC)nc3sc(C(=O)NC(C)(C)C)c(N)c23)cc1 [Compound 52]
- cAMP production, fold over TSHR basal activity, Y7.42A [1]: 3.2±0.9 fold
- inhibition of TSH-stimulated increase of TPO mRNA expression ([2]; 1 hour pretreatment, 24 hours with TSH, thyrocytes from two donors): inhibited
- inhibition of TsAb-stimulated TPO mRNA expression ([2]; Graves' disease sera 1:50, 10 μM compound, 24 hours): inhibited
- competition with 125I-labeled TSH for binding to TSHR [3]: does not compete
- activity at LHCGR compared to full activation by LH [4]: 17.25±2.25%
- antagonistic activity at TSHR in cAMP assay [5]: antagonist
- selectivity toward TSHR compared to LHCGR and FSHR [5]: selective toward TSHR
- antagonistic effect with or without preincubation with TSH (aggregation test) ([5]; 30 μM compound, 1.8 nM TSH, preincubated up to 15 minutes): no difference
- inhibition at 30 µM ([5]; HEK-EM293, read-out: maximum inhibition of TSH-mediated cAMP response of TSHR): 70.8 ± 5.5%
- IC50 ([5]; with EC50 dose of TSH): 4.2 µM
